Data taken from article PMC3194046 (European journal of pharmacology, 2009).

Experiments:
[1] = target: T1, purified guinea pig sigma1 receptor (Cavia porcellus, UniProt Q60492); experiment: Competition binding of [3H]-; details: for inhibition of [3H]-(+)-pentazocine binding to the sigma1 receptor: Fig. 2A, 2B
pure sigma1 receptor = pure sigma1 receptor (Cavia porcellus, UniProt Q60492); details: for relative inhibition of [125I]-Iodoazidococaine photolabeling: compounds at 0.1 µM, 1 µM and 10 µM; for inhibition of [125I]Iodoazidococaine photolabeling: 10 µM compound, 1 nM photoprobe
pure sigma1 receptor, sequence (Q60492 whole entry): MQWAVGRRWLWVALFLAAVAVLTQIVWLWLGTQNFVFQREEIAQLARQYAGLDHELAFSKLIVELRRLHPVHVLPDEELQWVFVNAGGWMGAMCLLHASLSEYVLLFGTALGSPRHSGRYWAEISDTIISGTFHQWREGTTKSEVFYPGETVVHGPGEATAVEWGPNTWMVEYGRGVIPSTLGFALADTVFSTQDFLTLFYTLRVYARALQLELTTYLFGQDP

dopamine (D2) receptor = details: ref Kumagai et al., 2000; cited from earlier work
[2] = target: T1, purified guinea pig sigma1 receptor; details: ref Moebius et al., 1997; Ramachandran et al., 2007; cited from earlier work
[3] = target: T2, sigma1 receptor in guinea pig liver membranes (Cavia porcellus, UniProt Q60492); details: ref Moebius et al., 1997; Ramachandran et al., 2007; cited from earlier work
T2 sequence (Q60492 whole entry): as above

sigma2 receptor = target: T3, sigma2 receptor (Rattus norvegicus, UniProt Q5U3Y7); experiment: Sigma2 receptor binding with [3H]-DTG on rat liver membranes, 100 nM; details: 100 nM (+)-pentazocine
T3 sequence (Q5U3Y7 1-176): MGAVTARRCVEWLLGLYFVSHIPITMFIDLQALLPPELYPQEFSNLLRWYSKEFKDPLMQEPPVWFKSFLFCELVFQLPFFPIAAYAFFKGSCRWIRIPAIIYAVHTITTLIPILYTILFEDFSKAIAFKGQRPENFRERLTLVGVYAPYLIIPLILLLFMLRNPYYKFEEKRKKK

[4] = target: T2, sigma1 receptor in guinea pig liver membranes; experiment: Competition binding of [3H]-
[5] = target: T2, sigma1 receptor in guinea pig liver membranes; experiment: Saturation equilibrium binding of [3H]-; details: saturation binding and Scatchard transformation
sigma1 receptor [6] = target: T4, sigma1 receptor (Cavia porcellus, UniProt Q60492); experiment: Inhibition of [3H]-; type: binding
T4 sequence (Q60492 whole entry): as the sequence (Q60492 whole entry) above

sigma1 receptor [7] = target: T4, sigma1 receptor; experiment: Inhibition of [3H]-; type: binding; details: HEK-293 homogenates S1,SK1; 2 mM ATP, 5 mM MgCl2; concentrations as high as 100 µM

T1 sequence (Q60492 whole entry): as the sequence (Q60492 whole entry) above

Compound	inhibition of [3H]-(+)-pentazocine binding to the sigma1 receptor [1]	relative inhibition of [125I]-Iodoazidococaine photolabeling (pure sigma1 receptor)	affinity for the sigma2 receptor (sigma2 receptor)	inhibition of [125I]Iodoazidococaine photolabeling (pure sigma1 receptor)	other results
ceramide-1 phosphate	failed to inhibit	not as effective	–	–	–
CCCCCCC[C@@H]1CC[C@@H](CCCC)N1 [(2R-trans)-2-Butyl-5-heptylpyrrolidine]	–	–	–	–	affinity for the dopamine (D2) receptor (dopamine (D2) receptor): high affinity
CCCCCCCCCCCCN [dodecylamine]	–	–	–	–	Ki [1]: 183 ± 17 nM
CCCCCCCCCCCCCN1CC(C)OC(C)C1 (stereo not drawn) [tridemorph]	–	–	–	–	affinity on the pure sigma1 receptor [2]: high affinity; affinity for the sigma1 receptor in guinea pig liver membranes [3]: high affinity
CCCCCCCCCCCCC/C=C/[C@H](O)[C@@H](N)CO [L-threo-sphingosine]	–	–	–	–	fold more potent at the pure sigma1 receptor than the naturally occurring isomer ([1]; L-threo compared to naturally occurring isomer): approximately 10 fold
CCCCCCCCCCCCC/C=C/[C@@H](O)[C@@H](N)COP(=O)(O)O [sphingosine-1 phosphate]	failed to do so	not as effective	did not bind	did not show significant inhibition	–
CCCCCCCCCCCCCCC[C@@H](O)[C@@H](N)CO [sphinganine]	–	–	much lower binding affinity	–	–
CCCCCCCCCCCCC/C=C/[C@@H](O)[C@@H](N)CO [D-erythro-sphingosine]	–	–	much lower binding affinity	inhibition of photolabeling	Ki [1]: 140 ± 20 nM; Ki [4]: 13000 ± 3100 nM; mode of inhibition of [3H]-(+)-pentazocine binding [5]: simple competitive interaction; Ki (sigma1 receptor [6]): 3600 ± 600 nM; inhibition of [3H]-(+)-pentazocine binding (sigma1 receptor [7]): did not show a significant inhibition
ceramide	failed to inhibit	not as effective	–	–	–
CCCCCCCCCCCCC/C=C/[C@@H](O)[C@H](CO)N(C)C [N, N dimethyl sphingosine]	–	marginally better than D-erythro sphingosine	much lower binding affinity	inhibition of photolabeling	–
